Reference: patent publication US20150273070A1, “MODIFIED RELEASE OF 4-METHYL-3-[[4-(3-PYRIDINYL)-2-PYRIMIDINYL]AMINO]-N-[5-(4-METHYL-1H-IMIDAZOL-1-YL)-3-(TRIFLOUOROMETHYL)PHENYL] BENZAMIDE SOLUBILIZED USING ORGANIC ACIDS” (Novartis AG, priority 2011, published 2015)

Experiments:
[1] = Solubility of nilotinib in lactic acid; type: physicochemical
From the text: Nilotinib solubilized modified release solid dosage forms containing lactic acid were developed. […] Surfactants and/or polymers were used to prevent the precipitation after solubilized nilotinib is released from the formulation matrix. Due to the liquid nature of lactic acid this formulation matrix is in the liquid form. However, by incorporation of additional suitable excipients, the formulation could be solidified at room temperature. This improved the physical and chemical stability of nilotinib in the formulation. In addition, the solid state also provided the opportunity to modulate the drug release rate.

[2] = Solubility of nilotinib in ethanol with citric acid; type: physicochemical

solubility ([1]; lactic acid, organic solvent or mixture, at 65° C.): > 600 mg/mL | solubility of the drug in ethanol [2]: remarkably high solubility
Compound: Cc1cn(-c2cc(NC(=O)c3ccc(C)c(Nc4nccc(-c5cccnc5)n4)c3)cc(C(F)(F)F)c2)cn1 [nilotinib, 4-Methyl-3-[[4-(3-pyrldinyl)-2-pyrimidinyl]amino]-N-[5-(4-methyl-1H-imidazol-1-yl)-3-(trifluoromethyl)phenyl] benzamide]
solubility at intestinal pH ([1]; in presence of surfactants and/or polymers): could maintain its solubility at intestinal pH
